Results published in US6492365B1, “Microsomal triglyceride transfer protein” (Bristol-Myers Squibb Company, priority 1992, dated 2002).
Where a name gives a salt, the structure may show the parent alone.

Biological target: T1, bovine MTP (Bos taurus, UniProt P55156)
T1 construct: with about 50-200 ng purified MTP in the well of a 96-well plate; from tissue; host or cells: bovine liver
T1 sequence (P55156 12-887): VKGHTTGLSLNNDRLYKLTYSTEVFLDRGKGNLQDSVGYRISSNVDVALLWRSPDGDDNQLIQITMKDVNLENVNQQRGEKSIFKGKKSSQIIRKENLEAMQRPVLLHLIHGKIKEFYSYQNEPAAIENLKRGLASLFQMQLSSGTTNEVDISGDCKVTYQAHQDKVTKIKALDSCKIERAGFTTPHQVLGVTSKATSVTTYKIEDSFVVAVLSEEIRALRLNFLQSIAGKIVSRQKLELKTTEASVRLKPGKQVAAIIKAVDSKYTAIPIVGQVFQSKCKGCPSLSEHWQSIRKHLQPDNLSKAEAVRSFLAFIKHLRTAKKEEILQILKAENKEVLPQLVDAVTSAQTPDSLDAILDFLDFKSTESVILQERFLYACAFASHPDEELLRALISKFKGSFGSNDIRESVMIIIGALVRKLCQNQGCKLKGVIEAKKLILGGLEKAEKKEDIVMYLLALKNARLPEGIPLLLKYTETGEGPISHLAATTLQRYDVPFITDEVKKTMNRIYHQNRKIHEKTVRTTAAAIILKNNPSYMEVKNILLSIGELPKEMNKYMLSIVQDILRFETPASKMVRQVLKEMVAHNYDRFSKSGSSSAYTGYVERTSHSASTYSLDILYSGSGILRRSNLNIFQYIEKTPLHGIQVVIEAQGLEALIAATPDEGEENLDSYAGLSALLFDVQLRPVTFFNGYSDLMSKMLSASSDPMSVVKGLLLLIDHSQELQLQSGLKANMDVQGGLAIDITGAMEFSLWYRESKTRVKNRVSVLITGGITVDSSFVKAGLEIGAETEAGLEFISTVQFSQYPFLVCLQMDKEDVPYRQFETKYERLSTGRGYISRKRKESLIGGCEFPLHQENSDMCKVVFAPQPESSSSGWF
T1 sequence (P05307 21-510 partner): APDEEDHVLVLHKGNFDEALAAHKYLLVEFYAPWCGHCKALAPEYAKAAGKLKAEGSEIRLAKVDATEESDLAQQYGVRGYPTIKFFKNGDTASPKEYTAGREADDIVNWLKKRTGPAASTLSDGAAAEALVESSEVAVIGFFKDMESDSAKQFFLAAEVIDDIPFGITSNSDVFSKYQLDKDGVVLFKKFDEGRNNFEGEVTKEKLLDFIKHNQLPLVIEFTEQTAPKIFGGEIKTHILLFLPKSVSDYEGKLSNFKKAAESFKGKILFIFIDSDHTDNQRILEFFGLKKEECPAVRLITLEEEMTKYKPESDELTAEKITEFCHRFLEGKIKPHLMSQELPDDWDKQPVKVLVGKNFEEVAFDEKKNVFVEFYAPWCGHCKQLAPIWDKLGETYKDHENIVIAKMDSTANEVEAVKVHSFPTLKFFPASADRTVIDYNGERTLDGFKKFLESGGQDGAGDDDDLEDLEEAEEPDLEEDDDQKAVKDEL
Experiment: MTP-catalyzed transport of 14C-PC from donor SUV to acceptor SUV
Type: biochemical
Details: at concentrations of inhibitor which decreased TG and CE transfer more than 80%
Description: To measure the effect of compound A on bovine MTP-catalyzed transport of CE or PC between membranes, the lipid transfer assay which measures TG transfer between SUV was modified. The composition of the donor vesicles was the same, except 0.25 mol% ^14C-CE or ^14C-PC replaced the labeled TG. The composition of the acceptor vesicles were the same, except labeled PC and unlabeled TG were not included. Following precipitation of donor vesicles, the percentage of lipid transfer was calculated by comparing the ^14C-CE or -PC in the acceptor vesicles in the supernatant following a transfer reaction to the total ^14C-CE or -PC in the assay. The labeled lipid in the supernatant in the absence of MTP was subtracted from the labeled lipid in the presence MTP to calculate the MTP-catalyzed lipid transfer from donor SUV to acceptor SUV. The remainder of the assay was essentially as described previously.

O=C1c2ccccc2CN1C1CCN(CCC(c2ccccc2)c2ccccc2)CC1 [compound A, 2-[1-(3,3-diphenylpropyl)-4-piperdinyl]-2,3-dihydro-3-oxo-1H-isoindole hydrochloride]
PC transfer inhibited: Approximately 40%
